Numbered stars: 1 amine (or outer) side, 2 acyl side, 3 side chain; on linkers, the order of the positions; unused ones are H or OH. Bridge positions count the residues as written; N and C are the ends. Square brackets hold non-standard residues; d marks the D form. Peptide text beside a SMILES is read from it. * marks the point of attachment. hPhe(3-Cl-4-CF3) = N[C@@H](CCc1ccc(C(F)(F)F)c(Cl)c1)C(=O)O; hPhe(3-F,4-CF3) = N[C@@H](CCc1ccc(C(F)(F)F)c(F)c1)C(=O)O; NEtPhe(4-CF3) = CCN[C@@H](Cc1ccc(C(F)(F)F)cc1)C(=O)O; NEtPhe(4-Me) = CCN[C@@H](Cc1ccc(C)cc1)C(=O)O; NMePhe(4-Me) = CN[C@@H](Cc1ccc(C)cc1)C(=O)O; NMeNle(6-CHF2) = CN[C@@H](CCCCC(F)F)C(=O)O; NMedβ3hAla = C[C@H](CC(=O)[*:2])N(C)[*:1]; NMeGly(cPent) = CN[C@H](C(=O)O)C1CCCC1; NMeCha = CN[C@@H](CC1CCCCC1)C(=O)O; Hyp = O=C(O)[C@@H]1C[C@@H](O)CN1; NMeChg = CN[C@H](C(=O)O)C1CCCCC1; NMeT = CN[C@H](C(=O)O)[C@@H](C)O; NMeD = CN[C@@H](CC(=O)O)C(=O)O; NMeL = CN[C@@H](CC(C)C)C(=O)O; NMeV = CN[C@H](C(=O)O)C(C)C; d(β3hA) = C[C@@H](N)CC(=O)O; Azetidin(1-yl) = C1CN(*)C1; NMeC = CN[C@@H](CS)C(=O)O; NMeS = CN[C@@H](CO)C(=O)O; dNMeS = CN[C@H](CO)C(=O)O; NMeA = CN[C@@H](C)C(=O)O; Piperidide = C1CCN(*)CC1; Pyrrolidide = C1CCN(*)C1; dNMeA = CN[C@H](C)C(=O)O; Ac5c = NC1(C(=O)O)CCCC1; Aze = O=C(O)[C@@H]1CCN1; Aib = CC(C)(N)C(=O)O; Sar = CNCC(=O)O; Propyl = CCC*
What was measured:
[1] = system: Human pancreatic cancer cell line AsPC-1 (G12D mutation Kras); experiment: AsPC-1 cell growth inhibition (AsPC-1 CGI); assay type: cell-based; settings: read-out: AsPC-1 cell growth inhibition, 50% growth inhibitory concentration (IC50 value); 96 hours, CellTiter-Glo, values classified in ranges
Protocol: Test compounds were serially dilated with dimethyl sulfoxide, and 200 nL was then dispensed to a U-bottom 96-well plate using Labcyte Echo. […] The cell suspension was dispensed to a. plate containing a test compound at 100 μL per well and incubated at 37° C. in a 5% carbon dioxide gas incubator. 96 hours later, 80 μL of CellTiter-Glo (Promega) was added to each well and fluorescence was measured.

[2] = target: protein-protein interaction between Kras and SOS1 (biotin-tagged human Kras loaded with GDP, His-tagged human SOS1) (Homo sapiens (Human), UniProt P01116, G12D); experiment: Protein-protein interaction inhibition between Kras and SOS1 (KrasG12D-SOS PPI) using AlphaScreen; assay type: biochemical; settings: AlphaScreen; biotin-tagged human Kras loaded with GDP, His-tagged human SOS1; read-out: KRAS G12D-SOS PPI IC50;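 further: kras produced in E. coli, Ni-coupled donor beads and streptavidin acceptor beads, excitation 680 nm with emission detected at 520–620 nm via singlet oxygen transfer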

SMILES: CCCOC[C@H]1C(=O)N(C)CC(=O)N[C@@H](CCc2ccc(C(F)(F)F)c(F)c2)C(=O)N2CCC[C@H]2C(=O)NC2(CCCC2)C(=O)N(C)[C@@H](C2CCCC2)C(=O)N(C)[C@H](C(=O)N(C)C)CSCC(=O)N(C)[C@@H](CC(C)C)C(=O)N[C@@H]([C@@H](C)CC)C(=O)N(C)[C@@H](C)C(=O)N2CC[C@H]2C(=O)N1C [Compound 2174, (3S,9S,12S,17S,20S,23S,29R,32S,38S)-20-[(2S)-butan-2-yl]-32-cyclopentyl-3-[2-[3-fluoro-4-(trifluoromethyl)phenyl]ethyl]-N,N,7,10,17,18,24,30,33-nonamethyl-23-(2-methylpropyl)-2,5,8,11,16,19,22,25,31,34,37-undecaoxo-9-(propoxymethyl)spiro[27-thia-1,4,7,10,15,18,21,24,30,33,36-undecazatricyclo[36.3.0.012,15]hentetracontane-35,1′-cyclopentane)-29-carboxamide] ({CH2CO}-[NMeL]I[NMeA][Aze][NMeS](Propyl)[Sar][hPhe(3-F,4-CF3)]P[Ac5c][NMeGly(cPent)][NMeC]-NMe2; thioether N-11)
- IC50 [1]: > 500 nM
- IC50 [2]: 870 nM

SMILES: CCO[C@@H]1C[C@H]2C(=O)NC3(CCCC3)C(=O)N(C)[C@@H](C3CCCC3)C(=O)N(C)[C@H](C)CC(=O)N(C)[C@@H](CC(C)C)C(=O)N[C@@H]([C@@H](C)CC)C(=O)N(C)[C@@H](C)C(=O)N3CC[C@H]3C(=O)N(CC)[C@@H](Cc3ccc(C(F)(F)F)cc3)C(=O)N(C)CC(=O)N[C@@H](CCc3ccc(C(F)(F)F)c(Cl)c3)C(=O)N2C1 [Compound 816] (cyclo([Ac5c][NMeGly(cPent)][NMedβ3hAla][NMeL]I[NMeA][Aze][NEtPhe(4-CF3)][Sar][hPhe(3-Cl-4-CF3)][Hyp](Et)))
- IC50 [1]: ≤ 20 nM
- IC50 [2]: 3.9 nM

SMILES: CC[C@H](C)[C@@H]1NC(=O)[C@H](CC(C)C)N(C)C(=O)C[C@@H](C(=O)N2CCCCC2)N(C)C(=O)[C@H]([C@@H](C)O)N(C)C(=O)C2(CCCC2)NC(=O)[C@@H]2CCCN2C(=O)[C@H](CCc2ccc(C(F)(F)F)c(Cl)c2)NC(=O)CN(C)C(=O)[C@H](CC2CCCCC2)N(C)C(=O)[C@@H]2CCN2C(=O)[C@H](C)N(C)C1=O [Compound 228] ([NMeL]I[NMeA][Aze][NMeCha][Sar][hPhe(3-Cl-4-CF3)]P[Ac5c][NMeT][NMeD]-Piperidide; lactam N-11)
- IC50 [1]: > 500 nM
- IC50 [2]: 24 nM

SMILES: CC[C@H](C)[C@@H]1NC(=O)[C@H](CC(C)C)N(C)C(=O)C[C@@H](C)NC(=O)[C@H](CC(C)C)N(C)C(=O)C(C)(C)NC(=O)[C@H](CC(C)C)N(C)C(=O)[C@H](CCc2ccc(C(F)(F)F)c(Cl)c2)NC(=O)CN(C)C(=O)[C@H](CCCCC(F)F)N(C)C(=O)CN(C)C(=O)CN(C)C1=O [Compound 1451] (cyclo([Aib][NMeL][d(β3hA)][NMeL]I[Sar][Sar][NMeNle(6-CHF2)][Sar][hPhe(3-Cl-4-CF3)][NMeL]))
- IC50 [1]: > 500 nM
- IC50 [2]: 20 nM

SMILES: CC[C@H](C)[C@@H]1NC(=O)[C@H](CC(C)C)N(C)C(=O)C[C@@H](C)N(C)C(=O)[C@H](C2CCCC2)N(C)C(=O)C2(CCCC2)NC(=O)[C@@H]2CCCN2C(=O)[C@H](CCc2ccc(C(F)(F)F)c(F)c2)NC(=O)CN(C)C(=O)[C@H](Cc2ccc(C)cc2)N(C)C(=O)[C@@H]2CCN2C(=O)[C@H](C)N(C)C1=O [Compound 481] (cyclo([Ac5c][NMeGly(cPent)][NMedβ3hAla][NMeL]I[NMeA][Aze][NMePhe(4-Me)][Sar][hPhe(3-F,4-CF3)]P))
- IC50 [1]: ≤ 20 nM
- IC50 [2]: 2 nM

SMILES: CC[C@H](C)[C@@H]1NC(=O)[C@H](CC(C)C)N(C)C(=O)C[C@@H](C(=O)N2CCCCC2)N(C)C(=O)[C@H](C2CCCCC2)N(C)C(=O)C2(CCCC2)NC(=O)[C@@H](CO)N(C)C(=O)[C@H](CCc2ccc(C(F)(F)F)c(Cl)c2)NC(=O)CN(C)C(=O)[C@H](CC2CCCCC2)N(C)C(=O)CN(C)C(=O)CN(C)C1=O [Compound 1448] ([NMeL]I[Sar][Sar][NMeCha][Sar][hPhe(3-Cl-4-CF3)][dNMeS][Ac5c][NMeChg][NMeD]-Piperidide; lactam N-11)
- IC50 [1]: > 500 nM
- IC50 [2]: 1.1 nM

SMILES: CC[C@H](C)[C@@H]1NC(=O)[C@H](C)N(C)C(=O)C[C@@H](C(=O)N2CCCC2)N(C)C(=O)[C@H](C(C)C)N(C)C(=O)C2(CCCC2)NC(=O)[C@@H]2CCCN2C(=O)[C@H](CCc2ccc(C(F)(F)F)c(Cl)c2)NC(=O)[C@@H](C)N(C)C(=O)[C@H](CC2CCCCC2)N(C)C(=O)[C@@H]2CCN2C(=O)[C@H](C)N(C)C1=O [Compound 1827] ([NMeA]I[NMeA][Aze][NMeCha][dNMeA][hPhe(3-Cl-4-CF3)]P[Ac5c][NMeV][NMeD]-Pyrrolidide; lactam N-11)
- IC50 [1]: > 500 nM
- IC50 [2]: 6.6 nM

SMILES: CC[C@H](C)[C@@H]1NC(=O)[C@H](CC(C)C)N(C)C(=O)C[C@@H](C(=O)N2CCC2)N(C)C(=O)[C@H](C2CCCC2)N(C)C(=O)C2(CCCC2)NC(=O)[C@@H]2CCCN2C(=O)[C@H](CCc2ccc(C(F)(F)F)c(Cl)c2)NC(=O)CN(C)C(=O)[C@H](Cc2ccc(C)cc2)N(CC)C(=O)[C@@H]2CCN2C(=O)[C@H](C)N(C)C1=O [Compound 506] ([NMeL]I[NMeA][Aze][NEtPhe(4-Me)][Sar][hPhe(3-Cl-4-CF3)]P[Ac5c][NMeGly(cPent)][NMeD]-{Azetidin(1-yl)}; lactam N-11)
- IC50 [1]: ≤ 20 nM
- IC50 [2]: 0.68 nM
